Values of other authors as cited in patent publication US12251426B2 (priority 2020, dated 2025).

Assays:
[1] = tested on: human coronavirus NL63 (HCoV-NL63); conditions: in vivo study (so in the source)
[2] = tested on: influenza A virus; conditions: in vitro
[3] = molecular target: SARS-CoV-2 PLpro (Severe acute respiratory syndrome coronavirus 2, UniProt P0DTD1)
[4] = tested on: phospholipase A2 (PLA2); conditions: in vitro
[5] = molecular target: SARS-CoV 3CLpro (Severe acute respiratory syndrome coronavirus, UniProt P0C6X7)
[6] = normal intake
[7] = molecular target: 3CLpro (Severe acute respiratory syndrome coronavirus 2, UniProt P0DTD1)
[8] = molecular target: helicase (Severe acute respiratory syndrome coronavirus 2, UniProt P0DTD1)
[9] = molecular target: S2 subunit of SARS-CoV (Severe acute respiratory syndrome coronavirus, UniProt P59594)
[10] = molecular target: SARS-CoV-2 S-protein/ACE2 receptor interface (UniProt P0DTC2+Q9BYF1)
[11] = molecular target: SARS-CoV PLpro (Severe acute respiratory syndrome coronavirus, UniProt P0C6X7)
[12] = molecular target: SARS-CoV RdRp (Severe acute respiratory syndrome coronavirus, UniProt P0C6X7)
[13] = molecular target: SARS-CoV helicase protein (Severe acute respiratory syndrome coronavirus, UniProt P0C6X7)
[14] = tested on: alveolar epithelial lining surface; conditions: acute lung injury caused by sepsis in mice
[15] = tested on: T lymphocytes; conditions: in vitro, exogenous
[16] = tested on: macrophages; conditions: in vitro

In the case of `O=C(O)/C=C/c1ccc(O)c(O)c1` [Caffeic acid, caffeic acid], the “inhibition of HCoV-NL63” value [1] is listed as “blocking virus attachment”, the water solubility is listed as “slightly water-soluble” and the “inhibitory effect on replication of influenza A virus” value [2] is listed as “highly inhibitory effect”.

In the case of `O=C(O[C@@H]1Cc2c(O)cc(O)cc2O[C@@H]1c1cc(O)c(O)c(O)c1)c1cc(O)c(O)c(O)c1` [EGCG, epigallocatechin gallate], the “binding affinity to SARS-CoV-2 PLpro” value [3] is given as “strong binding affinity”, the “inhibition of PLA2” value [4] is given as “inhibit” and the “inhibition of SARS-CoV 3CLpro” value [5] is given as “inhibits”.

In the case of `COc1ccc([C@@H]2CC(=O)c3c(O)cc(O[C@@H]4O[C@H](CO[C@@H]5O[C@@H](C)[C@H](O)[C@@H](O)[C@H]5O)[C@@H](O)[C@H](O)[C@H]4O)cc3O2)cc1O` [Hesperidin, hesperidin], the signs of toxicity [6] is given as “No signs of toxicity”, the “binding affinity to 3CLpro” value [7] is given as “high binding affinity” and the “binding affinity to helicase” value [8] is given as “high binding affinity”.

In the case of `O=c1cc(-c2ccc(O)c(O)c2)oc2cc(O)cc(O)c12` [Luteolin, luteolin], the “binding affinity to S2 subunit of SARS-CoV” value [9] is listed as “high binding affinity” and the “binding affinity to S-protein/ACE2 receptor interface” value [10] is listed as “high binding affinity”.

For `O=c1c(O)c(-c2ccc(O)c(O)c2)oc2cc(O)cc(O)c12` [Quercetin, quercetin], the “binding affinity to S-protein/ACE2 receptor interface” value [10] is given as “significant binding affinity” and the “inhibition of SARS-CoV 3CLpro” value [5] is given as “inhibits”.

In the case of `[Zn+2]` [Zinc ions], the “inhibition of SARS-CoV PLpro” value [11] is listed as “can also inhibit”, the “inhibition of SARS-CoV RdRp” value [12] is listed as “direct inhibition” and the “inhibition of SARS-CoV 3CLpro” value [5] is listed as “can inhibit”.

For `O=c1c(O)c(-c2cc(O)c(O)c(O)c2)oc2cc(O)cc(O)c12` [myricetin], the “inhibition of SARS-CoV helicase protein” value [13] is given as “inhibits”.

In the case of `O=C1O[C@H]([C@@H](O)CO)C(O)=C1O` [vitamin C, ascorbic acid], the “repair of the alveolar epithelial lining surface” value [14] is given as “stimulates repair” and the “effect on number, proliferation, and function of T lymphocytes” value [15] is given as “increase”.

In the case of `C=C1CC[C@H](O)C/C1=C/C=C1\CCC[C@]2(C)[C@@H]([C@H](C)CCCC(C)C)CC[C@@H]12` [vitamin D, cholecalciferol], the “expression of anti-inflammatory cytokines by macrophages” value [16] is listed as “increases” and the “expression of pro-inflammatory cytokines by macrophages” value [16] is listed as “reduces”.
